Results as given in US7704995B2 (Exelixis, Inc., priority 2003, dated 2010).
Like-named read-outs stand apart in the source and are kept apart here.

Target: T1, Chk1 (Homo sapiens, UniProt O14757)
T1 construct: purchased Upstate Biotechnology
T1 sequence (O14757 1-476): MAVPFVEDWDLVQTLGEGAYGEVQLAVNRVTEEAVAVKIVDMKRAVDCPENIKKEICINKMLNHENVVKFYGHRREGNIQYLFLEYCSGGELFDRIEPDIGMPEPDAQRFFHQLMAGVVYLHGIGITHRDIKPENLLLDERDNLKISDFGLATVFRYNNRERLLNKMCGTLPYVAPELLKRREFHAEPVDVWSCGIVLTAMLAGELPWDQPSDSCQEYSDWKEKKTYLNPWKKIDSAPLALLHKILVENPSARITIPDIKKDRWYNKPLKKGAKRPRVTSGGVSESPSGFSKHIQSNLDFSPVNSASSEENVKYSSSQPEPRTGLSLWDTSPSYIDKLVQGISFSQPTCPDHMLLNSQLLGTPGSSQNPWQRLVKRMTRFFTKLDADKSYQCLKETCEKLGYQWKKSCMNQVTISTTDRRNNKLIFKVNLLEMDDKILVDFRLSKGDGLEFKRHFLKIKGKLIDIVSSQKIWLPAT
Test: Chk1 kinase assay: incorporation of γ-33P ATP into immobilized myelin basic protein
Type: biochemical
Settings: read-out: Chk1 IC50
In short: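 Plates coated with MBP, then kinase reactions in Hepes pH 7.6 buffer with 10 mM MgCl2 and 1% DMSO were started by adding unlabeled plus γ-33P ATP (10 μM for Chk1 at 10 nM enzyme; 30 μM for Chk2 at 20 nM enzyme). After 1 h at room temperature, plates were washed and counted.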

[1] = Table 11, Chk1 only, class symbols A-D

Row | IC50 [1] [nM] | IC50 (Table 11, Chk1 only) [nM] | SMILES | further results
1 | ≥ 10000 |  | CC(C)(C)OC(=O)N1CC[C@H](NC(=O)c2nc(-c3cccc(S(=O)(=O)N[C@@H]4CCc5ccccc54)c3)cnc2N)C1 [Example 810, 1,1-dimethylethyl (3S)-3-({[3-amino-6-(3-{[(1R)-2,3-dihydro-1H-inden-1-ylamino]sulfonyl}phenyl)pyrazin-2-yl]carbonyl}amino)pyrrolidine-1-carboxylate] | 
2 | < 50 |  | Nc1ncc(-c2cccc(CN[C@@H]3c4ccccc4C[C@@H]3O)c2)nc1C(=O)N[C@H]1CCCNC1 [Example 968, 3-amino-6-[3-({[(1R,2S)-2-hydroxy-2,3-dihydro-1H-inden-1-yl]amino}methyl)phenyl]-N-[(3S)-piperidin-3-yl]pyrazin-2-carboxamide] | 
3 |  | 1000 to 10000 | CCN1CC[C@H](NC(=O)c2nc(-c3cccc(C(=O)N[C@H]4c5ccccc5C[C@H]4O)c3)cnc2N)C1 [Example 727, 3-amino-N-[(3S)-1-ethylpyrrolidin-3-yl]-6-[3-({[(1S,2R)-2-hydroxy-2,3-dihydro-1H-inden-1-yl]amino}carbonyl)phenyl]pyrazine-2-carboxamide] | 
4 |  | < 50 | CNC(=O)c1nc(-c2cccc(CN[C@H]3CCc4cc(-c5cccs5)ccc43)c2)cnc1N [Example 490, 3-amino-N-methyl-6-[3-({[(1S)-5-(2-thienyl)-2,3-dihydro-1H-inden-1-yl]amino}methyl)phenyl]pyrazine-2-carboxamide] | 
5 |  | 50 to 1000 | COC[C@H]1CCCN1/N=C(\C)c1nc(-c2cccc(C(=O)NCc3ccccc3)c2)cnc1N [Example 673, 3-[5-amino-6-((1E)-N-{(2R)-2-[(methyloxy)methyl]pyrrolidin-1-yl}ethanimidoyl)pyrazin-2-yl]-N-(phenylmethyl)benzamide] | 
6 |  | ≥ 10000 | CC(C)(C)OC(=O)N1CC[C@H](NC(=O)c2nc(-c3cccc(C(=O)NCCc4ccccc4)c3)cnc2N)C1 [Example 712, 1,1-dimethylethyl (3S)-3-({[3-amino-6-(3-{[(2-phenylethyl)amino]carbonyl}phenyl)pyrazin-2-yl]carbonyl}amino)pyrrolidine-1-carboxylate] | 
7 | < 50 |  | COc1ccc(CNC(=O)c2cccc(-c3cnc(N)c(C(=O)N[C@H]4CCCNC4)n3)c2)cc1 [Example 831, 3-amino-6-{3-[({[4-(methyloxy)phenyl]methyl}amino)carbonyl]phenyl}-N-[(3S)-piperidin-3-yl]pyrazine-2-carboxamide] | 
8 | < 50 |  | Nc1ncc(-c2cccc(C(=O)NCc3c(F)ccc(Cl)c3F)c2)nc1C(=O)N[C@H]1CCCCNC1 [Example 1019, 3-amino-N-[(3S)-azepan-3-yl]-6-[3-({[(3-chloro-2,6-difluorophenyl)methyl]amino}carbonyl)phenyl]pyrazine-2-carboxamide] | 
9 | < 50 |  | Cc1ccc(CNC(=O)c2cccc(-c3cnc(N)c(C(=O)N[C@H]4CCCNC4)n3)c2)cc1F [Example 1018, 3-amino-6-[3-({[(3-fluoro-4-methylphenyl)methyl]amino}carbonyl)phenyl]-N-[(3S)-piperidin-3-yl]pyrazine-2-carboxamide] | 
10 |  | < 50 | Nc1ncc(-c2cccc(C(=O)N[C@@H]3c4ccccc4C[C@@H]3O)c2)nc1C(=O)N[C@H]1CCNC1 [Example 726, 3-amino-6-[3-({[(1R,2S)-2-hydroxy-2,3-dihydro-1H-inden-1-yl]amino}carbonyl)phenyl]-N-[(3S)-pyrrolidin-3-yl]pyrazine-2-carboxamide] | 
11 | < 50 |  | Nc1ncc(-c2cccc(C(=O)NCc3ccc(F)c(Br)c3)c2)nc1C(=O)N[C@H]1CCCNC1 [Example 1027, 3-amino-6-[3-({[(3-bromo-4-fluorophenyl)methyl]amino}carbonyl)phenyl]-N-[(3S)-piperidin-3-yl]pyrazine-2-carboxamide] | 

More lines, now with the values behind:

Row | SMILES | IC50 [1] [nM] | IC50 (Table 11, Chk1 only) [nM] | further results
12 | Nc1ncc(-c2cccc(C(=O)NCc3ccccc3)c2)nc1-c1nc(-c2ccccc2)n(-c2ccccn2)n1 [Example 792, 3-[5-amino-6-(5-phenyl-1-pyridin-2-yl-1H-1,2,4-triazol-3-yl)pyrazin-2-yl]-N-(phenylmethyl)benzamide] |  | 1000 to 10000 | 
13 | Nc1ncc(-c2cccc(C(=O)NCc3cc(C(F)(F)F)ccc3F)c2)nc1C(=O)N[C@H]1CCCNC1 [Example 998, 3-amino-6-{3-[({[2-fluoro-5-(trifluoromethyl)phenyl]methyl}amino)carbonyl]phenyl}-N-[(3S)-piperidin-3-yl]pyrazine-2-carboxamide] | < 50 |  | 
14 | CNC(=O)c1nc(-c2cccc(C(=O)NCc3cccc(Oc4ccccc4)c3)c2)cnc1N [Example 189, 3-amino-N-methyl-6-{3-[({[3-(phenyloxy)phenyl]methyl}amino)carbonyl]phenyl}pyrazine-2-carboxamide] |  |  | IC50: 50 to 1000 nM
15 | CNC(=O)c1nc(-c2cccc(CNC3Cc4ccc(Br)cc4C3)c2)cnc1N (stereo not drawn) [Example 456, 3-amino-6-(3-{[(5-bromo-2,3-dihydro-1H-inden-2-yl)amino]methyl}phenyl)-N-methylpyrazine-2-carboxamide] |  | 50 to 1000 | 
16 | Nc1ncc(-c2cccc(CO)c2)nc1-c1nc([C@H]2CCCNC2)n[nH]1 [Example 725, [3-(5-amino-6-{3[(3S)-piperidin-3-yl]-1H-1,2,4-triazol-5-yl}pyrazin-2-yl)phenyl]methanol] |  | 50 to 1000 | 
17 | CNC(=O)c1nc(-c2cccc(CNC(CN3CCOCC3)c3ccccc3)c2)cnc1N (stereo not drawn) [Example 517, 3-amino-N-methyl-6-(3-{[(2-morpholin-4-yl-1-phenylethyl)amino]methyl}phenyl)pyrazine-2-carboxamide] |  | 1000 to 10000 | 
18 | CNC(=O)c1nc(-c2cccc(C(=O)NCc3cccc(Cl)c3)c2)cnc1N [Example 125, 3-amino-6-[3-({[(3-chlorophenyl)methyl]amino}carbonyl)phenyl]-N-methylpyrazine-2-carboxamide] |  |  | IC50: 50 to 1000 nM
19 | Cc1cc(C(=O)Nc2cccc(-c3cnc(N)c(C(=O)N[C@H]4CCCNC4)n3)c2)n(C)n1 [Example 902, 3-amino-6-(3-{[(1,3-dimethyl-1H-pyrazol-5-yl)carbonyl]amino}phenyl)-N-[(3S)-piperidin-3-yl]pyrazine-2-carboxamide] | < 50 |  | 
20 | CCNc1ncc(-c2cccc(C(=O)N[C@H]3CCc4ccccc43)c2)nc1C(=O)N[C@H]1CCN(CC)C1 [Example 707, 6-(3-{[(1S)-2,3-dihydro-1H-inden-1-ylamino]carbonyl}phenyl)-3-(ethylamino)-N-[(3S)-1-ethylpyrrolidin-3-yl]pyrazine-2-carboxamide] |  | ≥ 10000 | 
21 | CNC(=O)c1nc(-c2ccc(NC(C)=O)cc2)cnc1N [Example 63, 6-[4-(acetylamino)phenyl]-3-amino-N-methylpyrazine-2-carboxamide] |  |  | IC50: 1000 to 10000 nM
22 | CNC(=O)c1nc(-c2cccc(C(=O)NCc3cc(F)c(F)c(F)c3)c2)cnc1N [Example 316, 3-amino-N-methyl-6-[3-({[(3,4,5-trifluorophenyl)methyl]amino}carbonyl)phenyl]pyrazine-2-carboxamide] |  |  | IC50: 50 to 1000 nM
23 | Nc1ncc(-c2cccc(C(=O)NCc3cc(Cl)ccc3Cl)c2)nc1C(=O)N[C@H]1CCCNC1 [Example 1015, 3-amino-6-[3-({[(2,5-dichlorophenyl)methyl]amino}carbonyl)phenyl]-N-[(3S)-piperidin-3-yl]pyrazine-2-carboxamide] | < 50 |  | 
24 | CC(C)(C)OC(=O)N1CC[C@H](NC(=O)c2nc(-c3cccc(C(=O)N4CCc5ccccc5C4)c3)cnc2N)C1 [Example 711, 1,1-dimethylethyl (3S)-3-[({3-amino-6-[3-(3,4-dihydroisoquinolin-2(1H)-ylcarbonyl)phenyl]pyrazin-2-yl}carbonyl)amino]pyrrolidine-1-carboxylate] |  | ≥ 10000 | 
25 | Nc1ncc(-c2cccc(CNC(=O)c3ccc(Br)cc3)c2)nc1C(=O)N[C@H]1CCCNC1 [Example 892, 3-amino-6-[3-({[(4-bromophenyl)carbonyl]amino}methyl)phenyl]-N-[(3S)-piperidin-3-yl]pyrazine-2-carboxamide] | < 50 |  | 
26 | Nc1ncc(-c2cccc(NC(=O)c3cnc4ccccc4c3)c2)nc1C(=O)N[C@H]1CCCNC1 [Example 910, N-[3-(5-amino-6-{[(3S)-piperidin-3-ylamino]carbonyl}pyrazin-2-yl)phenyl]quinoline-3-carboxamide] | < 50 |  | 
27 | CNC(=O)c1nc(-c2cccc(NCCc3ccccc3)c2)cnc1N [Example 410, 3-amino-N-methyl-6-{3-[(2-phenylethyl)amino]phenyl}pyrazine-2-carboxamide] |  |  | IC50: 50 to 1000 nM
28 | Cn1nc(-c2nc(-c3cccc(C(=O)N[C@H]4CCc5ccccc54)c3)cnc2N)nc1C1CCCN(C(=O)OCc2ccccc2)C1 (stereo partly drawn) [Example 721, phenylmethyl 3-{3-[3-amino-6-(3-{[(1S)-2,3-dihydro-1H-inden-1-ylamino]carbonyl}phenyl)pyrazin-2-yl]-1-methyl-1H-1,2,4-triazol-5-yl}piperidine-1-carboxylate] |  | ≥ 10000 | 
29 | CNC(=O)c1nc(-c2cccc(C(=O)NCc3c(Cl)cc(Cl)cc3Cl)c2)cnc1N [Example 292, 3-amino-N-methyl-6-[3-({[(2,4,6-trichlorophenyl)methyl]amino}carbonyl)phenyl]pyrazine-2-carboxamide] |  |  | IC50: 50 to 1000 nM
30 | CNC(=O)c1nc(-c2cccc(CNCc3cc(-c4cccs4)ccc3F)c2)cnc1N [Example 457, 3-amino-6-{3-[({[2-fluoro-5-(2-thienyl)phenyl]methyl}amino)methyl]phenyl}-N-methylpyrazine-2-carboxamide] |  | 50 to 1000 | 
